From ChEMBL document CHEMBL6134802, “A benzoxazolyl urea inhibits VraS and enhances antimicrobials against vancomycin intermediate-resistant Staphylococcus aureus” (Bioorg Med Chem Lett, 2025)
The source made the active and inactive calls. The calls are words filed in the database; no cut-off is given here.

Assays:
Staphylococcus aureus [1] = assay: Synergistic antibacterial activity against vancomycin-intermediate resistant Staphylococcus aureus Mu50 assessed as fractional inhibitory concentration index at >400 times MIC in presence of penicillin G by checkerboard assay; type: functional
Staphylococcus aureus [2] = assay: Antibacterial activity against methicillin-resistant Staphylococcus aureus ATCC 33592 assessed as enhancement factor at 50 uM in presence of vancomycin (reference value: 2 ug/ml); type: functional
Staphylococcus aureus [3] = assay: Antibacterial activity against vancomycin-intermediate resistant Staphylococcus aureus Mu50 assessed as fold reduction at 50 uM in presence of penicillin G; type: functional
[4] = target: T1, Sensor protein VraS (Staphylococcus aureus (strain N315)) (UniProt Q99SZ7); assay: Inhibition of GST tagged VraS ATPase activity in vancomycin-intermediate resistant Staphylococcus aureus assessed as residual activity at 0.1 to 300 uM by kinase-coupled assay relative to control; settings: dose 0.1-300 µM
T1 sequence (whole entry): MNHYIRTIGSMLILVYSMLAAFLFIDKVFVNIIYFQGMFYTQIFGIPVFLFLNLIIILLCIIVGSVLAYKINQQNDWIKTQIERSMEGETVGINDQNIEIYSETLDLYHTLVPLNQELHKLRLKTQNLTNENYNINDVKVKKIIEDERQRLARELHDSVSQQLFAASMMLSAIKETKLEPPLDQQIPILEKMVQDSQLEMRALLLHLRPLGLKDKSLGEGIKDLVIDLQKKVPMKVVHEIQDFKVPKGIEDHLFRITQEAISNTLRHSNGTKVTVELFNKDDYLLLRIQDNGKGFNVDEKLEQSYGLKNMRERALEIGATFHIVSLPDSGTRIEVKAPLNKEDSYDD

Staphylococcus aureus [5] = assay: Antibacterial activity against methicillin-resistant Staphylococcus aureus USA 300 assessed as enhancement factor at 50 uM in presence of penicillin G (reference value: 128 ug/ml); type: functional
Staphylococcus aureus [6] = assay: Antibacterial activity against methicillin-resistant Staphylococcus aureus BAA 41 assessed as enhancement factor at 50 uM in presence of oxacillin (reference value: 256 ug/ml); type: functional
Staphylococcus aureus [7] = assay: Suppression of oxacillin-induced pbp2 gene transcription in vancomycin-intermediate resistant Staphylococcus aureus Mu50 assessed as decrease in pbp2 transcript level by RT-qPCR analysis; type: functional, organism-based
Staphylococcus aureus [8] = assay: Antibacterial activity against methicillin-resistant Staphylococcus aureus USA 300(BAA-1556) assessed as fold reduction in presence of vancomycin; type: functional
Staphylococcus aureus [9] = assay: Antibacterial activity against vancomycin-intermediate resistant Staphylococcus aureus Mu50 assessed as enhancement factor at 50 uM in presence of oxacillin (reference value: 256 ug/ml); type: functional
[10] = Cytotoxicity against MDCK cells assessed as reduction in cell viability incubated for 24 hrs by MTT assay; type: toxicity, cell-based, Canis lupus familiaris; settings: dog
Staphylococcus aureus [11] = assay: Suppression of vancomycin-induced vraSR gene transcription in vancomycin-intermediate resistant Staphylococcus aureus Mu50 assessed as decrease in vraSR transcript level by RT-qPCR analysis; type: functional, organism-based
Staphylococcus aureus [12] = assay: Antibacterial activity against methicillin-resistant Staphylococcus aureus ATCC 33592 assessed as fold reduction at 50 uM in presence of oxacillin (reference value: 128 ug/ml); type: functional
Staphylococcus aureus [13] = assay: Suppression of vancomycin-induced pbp2 gene transcription in vancomycin-intermediate resistant Staphylococcus aureus Mu50 assessed as decrease in pbp2 transcript level by RT-qPCR analysis; type: functional, organism-based
Staphylococcus aureus [14] = assay: Antibacterial activity against methicillin-resistant Staphylococcus aureus BAA-1683 assessed as enhancement factor at 50 uM in presence of vancomycin (reference value: 2 ug/ml); type: functional
Staphylococcus aureus [15] = assay: Antibacterial activity against methicillin-resistant Staphylococcus aureus USA 300 assessed as enhancement factor at 50 uM in presence of vancomycin (reference value: 2 ug/ml); type: functional
Staphylococcus aureus [16] = assay: Antibacterial activity against methicillin-resistant Staphylococcus aureus BAA 42 assessed as enhancement factor at 50 uM in presence of oxacillin (reference value: 64 ug/ml); type: functional
Staphylococcus aureus [17] = assay: Antibacterial activity against methicillin-resistant Staphylococcus aureus BAA-2094 assessed as enhancement factor at 50 uM in presence of oxacillin (reference value: 8 to 16 ug/ml); type: functional
Staphylococcus aureus [18] = assay: Synergistic antibacterial activity against vancomycin-intermediate resistant Staphylococcus aureus Mu50 assessed as microbial growth at 50 uM in presence of oxacillin at 2 to 4 ug/ml by checkerboard assay; type: functional, organism-based
Staphylococcus aureus [19] = assay: Suppression of oxacillin-induced mecA gene transcription in vancomycin-intermediate resistant Staphylococcus aureus Mu50 assessed as decrease in mecA transcript level by RT-qPCR analysis; type: functional, organism-based
Staphylococcus aureus [20] = assay: Antibacterial activity against vancomycin-intermediate resistant Staphylococcus aureus Mu50 assessed as enhancement factor at 50 uM in presence of vancomycin (reference value: 4 ug/ml); type: functional
Staphylococcus aureus [21] = assay: Antibacterial activity against methicillin-resistant Staphylococcus aureus USA 300 assessed as fold reduction at 50 uM in presence of Chloramphenicol; type: functional
Sensor protein VraS = target: T2, Sensor protein VraS (Staphylococcus aureus (strain N315), UniProt Q99SZ7); assay: Inhibition of GST tagged VraS ATPase activity in vancomycin-intermediate resistant Staphylococcus aureus by kinase-coupled assay
T2 sequence (Q99SZ7 whole entry): T1 sequence (whole entry)

Staphylococcus aureus [22] = assay: Synergistic antibacterial activity against vancomycin-intermediate resistant Staphylococcus aureus Mu50 assessed as fractional inhibitory concentration index at […] in presence of vancomycin by checkerboard assay; type: functional
Staphylococcus aureus [23] = assay: Antibacterial activity against vancomycin-intermediate resistant Staphylococcus aureus Mu50 assessed as enhancement factor at 50 uM in presence of penicillin G (reference value: 16 ug/ml); type: functional
Staphylococcus aureus [24] = assay: Antibacterial activity against methicillin-resistant Staphylococcus aureus BAA 42 assessed as enhancement factor at 50 uM in presence of vancomycin (reference value: 1 ug/ml); type: functional
Staphylococcus aureus [25] = assay: Synergistic antibacterial activity against vancomycin-intermediate resistant Staphylococcus aureus Mu50 assessed as microbial growth at 50 uM in presence of vancomycin at 0.125 ug/ml by checkerboard assay; type: functional, organism-based
Staphylococcus aureus [26] = assay: Antibacterial activity against methicillin-resistant Staphylococcus aureus USA 300 assessed as fold reduction at 50 uM in presence of vancomycin; type: functional
Staphylococcus aureus [27] = assay: Antibacterial activity against vancomycin-intermediate resistant Staphylococcus aureus Mu50 assessed as fold reduction at 50 uM in presence of vancomycin; type: functional
Staphylococcus aureus [28] = assay: Synergistic antibacterial activity against vancomycin-intermediate resistant Staphylococcus aureus Mu50 assessed as microbial growth at 50 uM in presence of penicillin G at 4 ug/ml by checkerboard assay; type: functional, organism-based
Staphylococcus aureus [29] = assay: Antibacterial activity against methicillin-resistant Staphylococcus aureus USA 300 assessed as enhancement factor at 50 uM in presence of oxacillin (reference value: 16 ug/ml); type: functional
Staphylococcus aureus [30] = assay: Suppression of vancomycin-induced mecA gene transcription in vancomycin-intermediate resistant Staphylococcus aureus Mu50 assessed as decrease in mecA transcript level by RT-qPCR analysis; type: functional, organism-based
Staphylococcus aureus [31] = assay: Antibacterial activity against methicillin-resistant Staphylococcus aureus BAA-2094 assessed as enhancement factor at 50 uM in presence of vancomycin (reference value: 2 ug/ml); type: functional
Staphylococcus aureus [32] = assay: Antibacterial activity against methicillin-resistant Staphylococcus aureus BAA-1683 assessed as enhancement factor at 50 uM in presence of oxacillin (reference value: 32 ug/ml); type: functional
Staphylococcus aureus [33] = assay: Suppression of oxacillin-induced vraSR gene transcription in vancomycin-intermediate resistant Staphylococcus aureus Mu50 assessed as decrease in vraSR transcript level by RT-qPCR analysis; type: functional, organism-based
Staphylococcus aureus [34] = assay: Antibacterial activity against methicillin-resistant Staphylococcus aureus ATCC 33592 assessed as fold reduction at 50 uM in presence of vancomycin; type: functional
Staphylococcus aureus [35] = assay: Antibacterial activity against vancomycin-intermediate resistant Staphylococcus aureus Mu50 assessed as fold reduction at 50 uM in presence of oxacillin; type: functional
Staphylococcus aureus [36] = assay: Antibacterial activity against vancomycin-intermediate resistant Staphylococcus aureus Mu50 assessed as enhancement factor at 50 uM in presence of Chloramphenicol (reference value: 16 ug/ml); type: functional
Staphylococcus aureus [37] = assay: Antibacterial activity against methicillin-resistant Staphylococcus aureus BAA 41 assessed as enhancement factor at 50 uM in presence of vancomycin (reference value: 2 ug/ml); type: functional
Staphylococcus aureus [38] = assay: Antibacterial activity against methicillin-resistant Staphylococcus aureus ATCC 33592 assessed as enhancement factor at 50 uM in presence of oxacillin (reference value: 128 ug/ml); type: functional
Staphylococcus aureus [39] = assay: Synergistic antibacterial activity against vancomycin-intermediate resistant Staphylococcus aureus Mu50 assessed as fractional inhibitory concentration index at >400 times MIC in presence of oxacillin by checkerboard assay; type: functional
Staphylococcus aureus [40] = assay: Antibacterial activity against methicillin-resistant Staphylococcus aureus USA 300 assessed as enhancement factor at 50 uM in presence of Chloramphenicol (reference value: 2 ug/ml); type: functional

SMILES: CCSc1nc2ccc(NC(=O)NC(c3cc(C)ccn3)C3CC3)cc2o1 (stereo not given)
- fractional inhibitory concentration index (FICI) (Staphylococcus aureus [1]): <=0.31
- MIC (Staphylococcus aureus [2]): < 0.25 µg/mL
- fold change (FC) (Staphylococcus aureus [3]): 4
- Activity [4]: 35%
- MIC (Staphylococcus aureus [5]): 128 µg/mL
- MIC (Staphylococcus aureus [6]): < 2 µg/mL
- Activity (Staphylococcus aureus [7]): Active
- fold change (FC) (Staphylococcus aureus [8]): 4
- MIC (Staphylococcus aureus [9]): 8 µg/mL
- IC50 at 24 h [10]: > 100000 nM
- Activity (Staphylococcus aureus [11]): Active
- fold change (FC) (Staphylococcus aureus [12]): 16
- Activity (Staphylococcus aureus [13]): Active
- MIC (Staphylococcus aureus [14]): 0.5 µg/mL
- MIC (Staphylococcus aureus [15]): 0.5 µg/mL
- MIC (Staphylococcus aureus [16]): < 2 µg/mL
- MIC (Staphylococcus aureus [17]): < 2 µg/mL
- Activity (Staphylococcus aureus [18]): Active
- Activity (Staphylococcus aureus [19]): Active
- MIC (Staphylococcus aureus [20]): 0.25 µg/mL
- fold change (FC) (Staphylococcus aureus [21]): 4
- IC50 (Sensor protein VraS): 940 nM
- fractional inhibitory concentration index (FICI) (Staphylococcus aureus [22]): <0.12
- MIC (Staphylococcus aureus [23]): 4 µg/mL
- MIC (Staphylococcus aureus [24]): < 0.25 µg/mL
- Activity (Staphylococcus aureus [25]): Active
- fold change (FC) (Staphylococcus aureus [26]): 2
- fold change (FC) (Staphylococcus aureus [27]): 16
- Activity (Staphylococcus aureus [28]): Active
- MIC (Staphylococcus aureus [29]): 16 µg/mL
- Activity (Staphylococcus aureus [30]): Active
- MIC (Staphylococcus aureus [31]): 0.5 µg/mL
- MIC (Staphylococcus aureus [32]): < 2 µg/mL
- Activity (Staphylococcus aureus [33]): Active
- fold change (FC) (Staphylococcus aureus [34]): ~4
- fold change (FC) (Staphylococcus aureus [35]): 32
- MIC (Staphylococcus aureus [36]): 16 µg/mL
- MIC (Staphylococcus aureus [37]): 0.25 µg/mL
- MIC (Staphylococcus aureus [38]): < 2 µg/mL
- fractional inhibitory concentration index (FICI) (Staphylococcus aureus [39]): <=0.31
- MIC (Staphylococcus aureus [40]): 0.25 µg/mL

SMILES: Cc1ccnc(C(NC(=O)Nc2ccc3nnn(C)c3c2)C2CC2)c1 (stereo not given)
- MIC (Staphylococcus aureus [9]): 256 µg/mL
- MIC (Staphylococcus aureus [20]): 4 µg/mL

SMILES: Cc1ccnc(C(NC(=O)Nc2ccc3c(c2)OCC(=O)N3C)C2CC2)c1 (stereo not given)
- MIC (Staphylococcus aureus [9]): 256 µg/mL
- MIC (Staphylococcus aureus [20]): 4 µg/mL
